Experimental data as given in US20250186490A1, “METHOD OF CHEMICALLY TREATING OR CULTIVATING MACROPHAGES AND THEIR THERAPEUTIC APPLICATIONS IN FIBROTIC DISEASES” (MAPONOS THERAPEUTICS INC., priority 2022, published 2025).

Legend:
[1] = test system: Bone Marrow-Derived Macrophages (BMDM); assay: MCP-1 ELISA on culture supernatant of MRCi-treated macrophages cultured under hypoxia; format: cell-based, mouse; conditions: then hypoxia, vs untreated
Procedure: (§1) In this example, macrophages were isolated and cultivated from the source of murine bone marrow. Eight-week-old male C57/BL6 mice (The Jackson Laboratory, ME, USA) were sacrificed by cervical dislocation. The tibia and femur were separated, and the bone marrow was flushed out using ice-cold PBS solution. Bone marrow cells were then resuspended into single-cell suspension and washed with ice-cold PBS. The cells were treated with Red Blood Cell Lysis Buffer (MilliporeSigma, MA, USA). After the treatment, the cell suspension was washed with ice-cold PBS then seeded with a culture medium.
(§2) The culture medium for the BMDM used in this example includes RPMI1640 (Thermo Fisher Scientific, MA, USA) containing 10% heat-inactivated Fetal Bovine Serum (Gemini Bio, CA, USA), supplied with 100 ng/ml of Recombinant Mouse M-CSF Protein (R&D Systems, MN, USA). Fresh medium was supplied on day three and day five post isolation. On day six of the culturing process, 1 μM of Rotenone (MilliporeSigma, MA, USA) in DMSO solution was added into the culturing medium and incubated for 2 hours with the cells. Then the culture was replaced with fresh medium and was placed into a hypoxia culture chamber with 1% oxygen supply and 5% carbon dioxide at 37° C. On day seven, the cells were ready for downstream treatments. In the untreated group, only vehicle (DMSO) was added as the control. In addition to Rotenone, the following mitochondrial respiratory chain inhibitors (MRCi) were also tested following the same culturing process: Deguclin (10 μM), Piericidin A (0.1 μM), and Capsaicin (5 μM).
To evaluate the enhanced anti-fibrosis ability of the chemically-treated BMDM, ELISA assays were applied using commercially purchased testing kits. In this example, a Mouse MCP-1 ELISA Kit and a Mouse IP-10 ELISA Kit (CXCL10) (both from Abcam plc, Cambridge, UK) were used. Tests using both kits were performed according to the instructions provided by Abcam. […]

[2] = test system: Bone Marrow-Derived Macrophages (BMDM); assay: CXCL10 (IP-10) ELISA on culture supernatant of MRCi-treated macrophages cultured under hypoxia; format: cell-based, mouse; conditions: then hypoxia (1% oxygen), vs untreated
Procedure: as §1
as §2, with “In addition to Rotenone, the following mitochondrial respiratory chain inhibitors (MRCi) were also tested following the same culturing process: Deguclin (10 μM), Piericidin A (0.1 μM), and Capsaicin (5 μM).” left out

With `C/C=C(\C)[C@H](O)[C@H](C)/C=C(C)/C=C/C/C(C)=C/Cc1nc(OC)c(OC)c(O)c1C` [Piericidin A] the MCP-1 level ([1]; BMDM treated with 0.1 μM Piericidin A) was “reduce the MCP-1 level”.
For `COc1cc(CNC(=O)CCCC/C=C/C(C)C)ccc1O` [capsaicin, Capsaicin], the MCP-1 level ([1]; BMDM treated with 5 μM capsaicin) was “reduce the MCP-1 level”.
For `COc1cc2c(cc1OC)[C@@H]1C(=O)c3ccc4c(c3O[C@@H]1CO2)C=CC(C)(C)O4` [deguelin, Deguelin], the “CXCL 10 level” value ([2]; BMDM treated with 10 μM deguelin for 2 hours) was “increased CXCL 10 level”.
For `C=C(C)[C@H]1Cc2c(ccc3c2O[C@@H]2COc4cc(OC)c(OC)cc4[C@@H]2C3=O)O1` [rotenone, Rotenone], the “CXCL 10 level” value ([2]; BMDM treated with 1 μM rotenone for 2 hours) was “increased CXCL 10 level” and the MCP-1 level ([1]; BMDM treated with 1 μM rotenone) was “reduce the MCP-1 level”.
